What was measured:
DYRK1A = settings: in Figure 3; cited from earlier work
seven tumor cell lines = test: In vitro cytotoxic assay, whole panel of cancer cell lines; type: cell-based, human; settings: 48 h; for IC50: Homo sapiens, lowest to highest IC50 among the seven cancer cell lines, read-out: IC50 span over the cancer cell lines
Description: Skin normal fibroblastic cells were purchased from Lonza (Basel, Switzerland). […] All culture media were supplemented by 10% of FBS, 1% of penicillin–streptomycin and 2 mM glutamine.
Chemicals were solubilized in DMSO at a concentration of 10 mM (stock solution) and diluted in culture medium to the desired final concentrations. […] Cells were plated in 96-well plates (4000 cells/well). Twenty-four hours after seeding, the cells were exposed to chemicals. […] Image acquisition and analysis were performed using a Cellomics ArrayScan VTI/HCS Reader (ThermoScientific, Les Ulis, France). The survival percentages were calculated as the percentage of cell number after compound treatment over cell number after DMSO treatment. The relative IC50 values were calculated using the curve fitting XLfit 5.5.0.5 (idbs) integrated in Microsoft Excel as an add-on.
4.3.1. Cell culture. Skin normal fibroblastic cells are purchased from Lonza (Basel, Switzerland). Huh7- […]
from ATCC (American Type Culture Collection). […]
supplemented by 10% of FBS, 1% of penicillin-streptomycin and 2 mM glutamine.
4.3.2. Cytotoxic assay. Chemicals were solubilized in DMSO at a concentration of 10 mM (stock solution) and diluted in culture medium to the desired final concentrations. The dose effect cytotoxic assays (IC50 determination) were performed by increasing the concentrations of each chemical (final well […]
Cells were plated in 96-well plates
(4000 cells/well). Twenty-four hours after seeding, cells were exposed to chemicals. After 48h of treatment, cells were washed in PBS and fixed in cooled 90% ethanol/5% acetic acid for 20 min and the […]
Image acquisition and analysis were performed using a Cellomics ArrayScan VTI/HCS Reader (ThermoScientific). The survival percentages were calculated as the percentage of cell number after compound treatment over cell number after DMSO treatment. The relative IC50 were calculated using the curve fitting XLfit 5.5.0.5 (idbs) integrated in Microsoft Excel as an add-on. The 4 Parameter Logistic Model or Sigmoidal Dose-Response Model describing the sigmoid-shaped response pattern was used (fit = (A+[(B-A)/(1+[(C/x)^D])]) where fit is the response and X is the tested concentration of the compound. The lower asymptote is A (also referred to as the bottom of the curve or lower plateau or the min) and the upper asymptote is B (also referred to as the top of the curve or upper plateau or the max). The slope of the linear part of the curve is described by the factor D. The parameter C is the concentration corresponding to the response midway between A and B. C is called “relative IC50” because it refers to the maximum response obtained by a […]
The results are represented as the mean ± standard error (SE) calculated from at least three independent experiments.

| SMILES | IC50 (seven tumor cell lines) [µM] | other results |
| --- | --- | --- |
| COC(=N)c1nc2ccc3ncn(Cc4ccccc4)c(=O)c3c2s1 [Compound I, methyl 8-benzyl-9-oxo-8,9-dihydrothiazolo[5,4-f]quinazoline-2-carbimidate, reference compound] | – | IC50 (DYRK1A): 0.3 µM |
| COC(=N)c1nc2cc3ncn(Cc4ccccc4)c(=O)c3cc2s1 [Compound 6b, Methyl 7-benzyl-8-oxo-7,8-dihydrothiazolo[5,4-g]quinazoline-2-carbimidate] | 1 to 3 | – |
| COC(=N)c1nc2c(ccc3c(=O)n(Cc4ccccc4)cnc32)s1 [Compound 6c, Methyl 7-benzyl-6-oxo-6,7-dihydrothiazolo[5,4-h]quinazoline-2-carbimidate] | 3 to 13 | – |
| COC(=N)c1nc2cc3ncnc(Nc4ccc(OC)cc4F)c3cc2s1 [Compound 15b, Methyl 8-[(2-fluoro-4-methoxyphenyl)amino]thiazolo[5,4-g]quinazoline-2-carbimidate] | – | Cytotoxicity over the cell lines studied (in words) (seven tumor cell lines; 0.1-25 μM): did not show detectable cytotoxicity |
| COC(=N)c1nc2cc3c(=O)n(Cc4ccccc4)cnc3cc2s1 [Compound 6a, Methyl 7-benzyl-8-oxo-7,8-dihydrothiazolo[4,5-g]quinazoline-2-carbimidate] | 17 to 27 | – |
| COC(=N)c1nc2ccc3ncnc(Nc4ccc(OC)cc4F)c3c2s1 [Compound II, methyl 9-[(2-fluoro-4-methoxyphenyl)amino]thiazolo[5,4-f]quinazoline-2-carbimidate, reference compound] | – | IC50 (DYRK1A): 0.00036 µM |
| COC(=N)c1nc2ccc3c(=O)n(Cc4ccccc4)cnc3c2s1 [Compound 6d, Methyl 7-benzyl-6-oxo-6,7-dihydrothiazolo[4,5-h]quinazoline-2-carbimidate] | 2 to 11 | – |
